# Source: ChEMBL document CHEMBL3351475, “Synthesis and anti-tumor activity of glycosyl oxadiazoles derivatives” (Bioorg Med Chem Lett, 2014)
# Legend:
# MDA-MB-231 [1] = test: Growth inhibition of human MDA-MB-231 cells at 100 uM after 24 hrs by MTT assay; format: functional; conditions: MDA-MB-231, 24 h
# MDA-MB-231 [2] = test: Growth inhibition of human MDA-MB-231 cells after 24 hrs by MTT assay; format: functional, cell-based; conditions: MDA-MB-231, 24 h
SMILES,inhibition at 100 µM (MDA-MB-231 [1]) [%],IC50 (MDA-MB-231 [2]) [nM]
O=C(N/N=C/c1ccccc1)c1ccc(O[C@@H]2O[C@H](CO)[C@@H](O)[C@H](O)[C@H]2O)cc1,3.56,
CC(C)/C=N/NC(=O)c1ccc(O[C@@H]2O[C@H](CO)[C@@H](O)[C@H](O)[C@H]2O)cc1,1.7,
O=C(N/N=C/C1CCCCC1)c1ccc(O[C@@H]2O[C@H](CO)[C@@H](O)[C@H](O)[C@H]2O)cc1,0.88,
CCCCC/C=N/NC(=O)c1ccc(O[C@@H]2O[C@H](CO)[C@@H](O)[C@H](O)[C@H]2O)cc1,11,
O=C(N/N=C/c1cccc(Cl)c1)c1ccc(O[C@@H]2O[C@H](CO)[C@@H](O)[C@H](O)[C@H]2O)cc1,5.02,
O=C(N/N=C/c1cccc([N+](=O)[O-])c1)c1ccc(O[C@@H]2O[C@H](CO)[C@@H](O)[C@H](O)[C@H]2O)cc1,6.23,
O=C(N/N=C/c1ccc([N+](=O)[O-])cc1)c1ccc(O[C@@H]2O[C@H](CO)[C@@H](O)[C@H](O)[C@H]2O)cc1,7.12,
N#Cc1cccc(/C=N/NC(=O)c2ccc(O[C@@H]3O[C@H](CO)[C@@H](O)[C@H](O)[C@H]3O)cc2)c1,6.17,
CC(=O)OC[C@H]1O[C@@H](Oc2ccc(-c3nnc(-c4ccccc4)o3)cc2)[C@H](OC(C)=O)[C@@H](OC(C)=O)[C@@H]1OC(C)=O,29.5,5970
COc1ccc(-c2nnc(-c3ccc(O[C@@H]4O[C@H](COC(C)=O)[C@@H](OC(C)=O)[C@H](OC(C)=O)[C@H]4OC(C)=O)cc3)o2)cc1,26,9230
CC(=O)OC[C@H]1O[C@@H](Oc2ccc(-c3nnc(-c4ccc(Cl)cc4)o3)cc2)[C@H](OC(C)=O)[C@@H](OC(C)=O)[C@@H]1OC(C)=O,42.1,890
CC(=O)OC[C@H]1O[C@@H](Oc2ccc(-c3nnc(-c4ccc(F)cc4)o3)cc2)[C@H](OC(C)=O)[C@@H](OC(C)=O)[C@@H]1OC(C)=O,54.1,260
CC(=O)OC[C@H]1O[C@@H](Oc2ccc(-c3nnc(-c4ccc(C)cc4)o3)cc2)[C@H](OC(C)=O)[C@@H](OC(C)=O)[C@@H]1OC(C)=O,13.1,
CC(=O)OC[C@H]1O[C@@H](Oc2ccc(-c3nnc(C(C)C)o3)cc2)[C@H](OC(C)=O)[C@@H](OC(C)=O)[C@@H]1OC(C)=O,11.9,
CC(=O)OC[C@H]1O[C@@H](Oc2ccc(-c3nnc(C4CCCCC4)o3)cc2)[C@H](OC(C)=O)[C@@H](OC(C)=O)[C@@H]1OC(C)=O,11.6,
CCCCCc1nnc(-c2ccc(O[C@@H]3O[C@H](COC(C)=O)[C@@H](OC(C)=O)[C@H](OC(C)=O)[C@H]3OC(C)=O)cc2)o1,21.5,8340
CC(=O)OC[C@H]1O[C@@H](Oc2ccc(-c3nnc(-c4cccc(Cl)c4)o3)cc2)[C@H](OC(C)=O)[C@@H](OC(C)=O)[C@@H]1OC(C)=O,36.7,1350
CC(=O)OC[C@H]1O[C@@H](Oc2ccc(-c3nnc(-c4cccc([N+](=O)[O-])c4)o3)cc2)[C@H](OC(C)=O)[C@@H](OC(C)=O)[C@@H]1OC(C)=O,40.1,3600
CC(=O)OC[C@H]1O[C@@H](Oc2ccc(-c3nnc(-c4ccc([N+](=O)[O-])cc4)o3)cc2)[C@H](OC(C)=O)[C@@H](OC(C)=O)[C@@H]1OC(C)=O,58,950
CC(=O)OC[C@H]1O[C@@H](Oc2ccc(-c3nnc(-c4cccc(C#N)c4)o3)cc2)[C@H](OC(C)=O)[C@@H](OC(C)=O)[C@@H]1OC(C)=O,44.1,1080
COc1ccc(/C=N/NC(=O)c2ccc(O[C@@H]3O[C@H](CO)[C@@H](O)[C@H](O)[C@H]3O)cc2)cc1 (stereo in doubt),11.3,
O=C(N/N=C/c1ccc(Cl)cc1)c1ccc(O[C@@H]2O[C@H](CO)[C@@H](O)[C@H](O)[C@H]2O)cc1 (stereo in doubt),2.26,
O=C(N/N=C/c1ccc(F)cc1)c1ccc(O[C@@H]2O[C@H](CO)[C@@H](O)[C@H](O)[C@H]2O)cc1 (stereo in doubt),9.91,
Cc1ccc(/C=N/NC(=O)c2ccc(O[C@@H]3O[C@H](CO)[C@@H](O)[C@H](O)[C@H]3O)cc2)cc1 (stereo in doubt),9.28,
CN(CCOc1ccc(CC2SC(=O)NC2=O)cc1)c1ccccn1 (stereo not given) [ROSIGLITAZONE],34.2,5230
